# Source: article PMC3272345 (Chemmedchem, 2011)
# Legend:
# HsCDK2–CYCA = HsCDK2–CYCA (Homo sapiens, UniProt P24941); test: radiometric CDK2 counter-screen; type: biochemical; settings: HsCDK2–CYCA IC50 [μM], mean of two or more experiments; 1 μM ATP
# [1] = biological target: T1, Leishmania CRK3–CYC6 complex (Leishmania mexicana, UniProt O15851); test: IMAP-FP primary screen; type: biochemical, L. mexicana CRK3, L. major CYC6; settings: for inhibition at 30 µM: read-out: CRK3–CYC6 Inhib. [%]
# T1 sequence (O15851 1-311): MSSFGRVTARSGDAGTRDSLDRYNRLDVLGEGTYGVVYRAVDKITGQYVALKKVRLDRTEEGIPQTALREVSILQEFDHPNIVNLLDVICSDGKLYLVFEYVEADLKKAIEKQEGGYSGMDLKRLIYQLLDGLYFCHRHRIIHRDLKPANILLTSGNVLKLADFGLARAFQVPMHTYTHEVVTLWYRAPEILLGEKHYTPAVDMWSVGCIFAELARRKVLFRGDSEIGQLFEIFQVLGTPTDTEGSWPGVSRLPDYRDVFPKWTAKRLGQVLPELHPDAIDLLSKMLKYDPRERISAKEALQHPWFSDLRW
# T1 sequence (Q4Q4U0 1-303 partner): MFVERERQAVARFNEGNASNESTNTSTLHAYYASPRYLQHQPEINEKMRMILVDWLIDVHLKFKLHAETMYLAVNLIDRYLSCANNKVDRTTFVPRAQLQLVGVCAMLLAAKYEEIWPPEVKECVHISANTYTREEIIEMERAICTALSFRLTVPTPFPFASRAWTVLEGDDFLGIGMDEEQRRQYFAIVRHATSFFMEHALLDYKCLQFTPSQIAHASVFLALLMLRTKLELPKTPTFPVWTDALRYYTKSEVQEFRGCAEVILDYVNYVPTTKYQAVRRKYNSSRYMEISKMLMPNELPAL
# Leishmania CRK3–CYC6 = biological target: T2, Leishmania CRK3–CYC6 (Leishmania mexicana, UniProt O15851); test: radiometric CRK3 assay; type: biochemical, L. mexicana CRK3, L. major CYC6
# T2 sequence (O15851 1-311): T1 sequence (O15851 1-311)
# T2 sequence (Q4Q4U0 1-303 partner): T1 sequence (Q4Q4U0 1-303 partner)
# [2] = test system: panel of 76 human kinases; test: DSTT Dundee kinase panel; type: biochemical; settings: for selectivity against panel of 76 human kinases (in words): 10 μM
# [3] = mammalian cell line counter-screen; type: cell-based; settings: human, MRC5 cells
# [4] = CRK3–CYC6 IC50 [μM], mean of two or more experiments, 1 μM ATP
Compound,IC50 (HsCDK2–CYCA),IC50 (Leishmania CRK3–CYC6; [4]),further results
"O=C(Nc1cc(-c2ccc(Cl)cc2)[nH]n1)c1cccnc1 [Compound 10, N-(5-(4-Chlorophenyl)-1H-pyrazol-3-yl)nicotinamide]",,,inhibition at 30 µM [1]: 100%
"O=C(Nc1cc(-c2ccc(Cl)cc2)[nH]n1)C1CCCCC1 [Compound 11, N-[5-(4-Chlorophenyl)-1H-pyrazol-3-yl]cyclohexanecarboxamide]",,,selectivity against panel of 76 human kinases (in words) [2]: highly selective; number of human kinases with >50 % inhibition at 10 μM ([2]; of 76 kinases): three; inhibition at 30 µM [1]: 100%
Cc1cccc(-c2ccc3nc(NCC4CCCCC4)nn3c2)c1 [Compound 36],64 µM,3 µM,
CC1(C)CC(=O)C=C(NC(=O)Nc2ccccc2)C1 [Compound 50],> 100 µM,0.095 µM,EC50 [3]: ≥ 50000 nM
"CC1(C)CC(=O)C=C(NC(=O)NC2CCCCC2)C1 [Compound 54, 1-Cyclohexyl-3-(5,5-dimethyl-3-oxocyclohex-1-en-1-yl)urea]",> 100 µM,0.098 µM,
"COc1cccc(NC(=O)NC2=CC(=O)CC(C)(C)C2)c1 [Compound 56, 1-(5,5-Dimethyl-3-oxocyclohex-1-en-1-yl)-3-(3-methoxyphenyl)urea]",> 100 µM,0.04 µM,
CC1(C)CC(=O)C=C(NC(=O)Nc2ccc(OCc3ccccc3)cc2)C1 [Compound 58],> 100 µM,0.11 µM,selectivity against panel of 76 human kinases (in words) [2]: highly selective
"CN[C@@H]1C[C@H]2O[C@@](C)([C@@H]1OC)n1c3ccccc3c3c4c(c5c6ccccc6n2c5c31)C(=O)NC4 [staurosporine, reference compound]",,,IC50 [1]: 29 nM; IC50 (Leishmania CRK3–CYC6; potency (IC50) in radiometric Leishmania CRK3 assay): 0.0091 µM

# More lines, main results first:
IC50 (HsCDK2–CYCA),IC50 (Leishmania CRK3–CYC6; [4]),Compound,further results
1.6 µM,3 µM,"CC(=O)Nc1cc(-c2ccc(Cl)cc2)n[nH]1 [Compound 2, N-(5-(4-Chlorophenyl)-1H-pyrazol-3-yl)acetamide]",inhibition at 30 µM [1]: 74%
1.2 µM,0.9 µM,"O=C(Nc1cc(-c2ccc(Cl)cc2)[nH]n1)C1CCC1 [Compound 7, N-(5-(4-Chlorophenyl)-1H-pyrazol-3-yl)cyclobutanecarboxamide]",inhibition at 30 µM [1]: 99%
> 100 µM,8 µM,COc1ccccc1NC(=O)NC1=CC(=O)CC(C)(C)C1 [Compound 55],
> 100 µM,0.89 µM,COc1ccc(NC(=O)NC2=CC(=O)CC(C)(C)C2)cc1 [Compound 57],
> 100 µM,,COC(=O)c1ccc(NC(=O)NC2=CC(=O)CC(C)(C)C2)cc1 [Compound 59],selectivity against panel of 76 human kinases (in words) [2]: highly selective
5.9 µM,,CC1(C)CC(=O)C=C(NC(=O)Nc2ccc(O)cc2)C1 [Compound 60],
> 100 µM,> 100 µM,O=C1C=C(NC(=O)Nc2ccccc2)CCC1 [Compound 61],
